# Assay results published in patent US12630530B2, “FGFR inhibitor compound and use thereof” (HENAN MEDINNO PHARMACEUTICAL TECHNOLOGY CO., LTD., priority 2020, dated 2026).
# Legend:
# Format in all cases: biochemical
# Settings in all cases: Table 3; same method as Assay I, different experimental operator
# FGFR1 V561M = molecular target: T1, FGFR1 V561M (Homo sapiens, UniProt P11362, V561M); assay: Assay III: inhibitory activity against FGFR mutants (method of Assay I, different operator)
# T1 construct: purchased Signalchem F04-13G
# Protocol: (§1) 1×Kinase reaction buffer was formulated with 1×volume of 5× kinase reaction buffer and 4×volume of water; 5 mM MgCl2; and 1 mM DTT.
# (§2) 2.3 Screening of Compounds: • 1. Diluting a compound 4-fold in a dilution plate with DMSO, with a starting compound concentration of 2 mM (4 mM for Nentedanib). • 2. Diluting the compound 40-fold into 1× kinase reaction buffer and shaking it on a shaker for 20 minutes. • 3. […] Adding 1 μl of the compound diluted in buffer to each well, sealing the plate with a sealing membrane and centrifuging the plate at 1000 g for 30 seconds and leaving it at room temperature for 10 minutes. • 6. Formulating 2.5×TK-substrate-biotin and ATP mixture with 1× enzyme reaction buffer and adding 2 μl of K-substrate-biotin/ATP mixture to the reaction plate. • 7. Sealing the plate with a sealing membrane and centrifuging the plate at 1000 g for 30 seconds and allowing it to react at room temperature for 50 minutes. • 8. Formulating 4×Sa-XL 665 (250 nM) with HTRF assay buffer. • 9. Adding 5 μl Sa-XL 665 and 5 μl TK-Antibody-Cryptate to each well, centrifuging it at 1000 g for 30 seconds, and allowing it to react for 1 hour at room temperature. • 10. Reading fluorescence signals at 615 nm (Cryptate) and 665 nm (XL665) with Biotek. 3. Data Analysis
# (§3) 3.1 Calculation of the ratio for each well: the ratio was calculated as 665/615 nm.
# (§4) 3.3 Calculation of IC50 and plotting of inhibition curves for the compounds.
# (§5) The IC50 (half inhibition concentration) of a compound was obtained using the following non-linear fitting equation, wherein data analysis was performed using Graphpad 6.0 software.
# (§6) Data were exported from Envision and analyzed manually. The ratios were converted to inhibition rates and IC50 was calculated by Prism GraphPad 6.0 from the inhibition rates. IC50 was calculated again by the ratios to verify accuracy of the results.
# (§7) Assay III: Determination of Inhibitory Activity Against FGFR Mutants
# FGFR2 V564F = molecular target: T2, FGFR2 V564F (Homo sapiens, UniProt P21802, V564F); assay: as above
# T2 construct: purchased Signalchem F05-12FG
# Protocol: as §1, §2, §3, §4, §5, §6, §7
# FGFR3 V555M = molecular target: T3, FGFR3 V555M (Homo sapiens, UniProt P22607, V555M); assay: as above
# T3 construct: purchased Signalchem F06-12GG
# Protocol: as §1, §2, §3, §4, §5, §6, §7
# VEGFR2 = molecular target: T4, VEGFR2 (Homo sapiens, UniProt P35968); assay: Assay III: kinase inhibition (method of Assay I, different operator), VEGFR2
# T4 construct: purchased Carna 08-191
# Protocol: as §1
# 2.3 Screening of Compounds: • 1. Diluting a compound 4-fold in a dilution plate with DMSO, with a starting compound concentration of 2 mM (4 mM for Nentedanib). • 2. Diluting the compound 40-fold into 1× kinase reaction buffer and shaking it on a shaker for 20 minutes. • 3. Formulating 2×FGFR1 V561M/FGFR2 V564F/FGFR3 K650E/VEGFR2 with 1× of enzyme reaction buffer. • 4. Adding 2 μl FGFR1 V561M/FGFR2 V564F/FGFR3 K650E/VEGFR2 kinase (formulated in step 3) to each well of the reaction plate. • 5. Adding 1 μl of the compound diluted in buffer to each well, sealing the plate with a sealing membrane and centrifuging the plate at 1000 g for 30 seconds and leaving it at room temperature for 10 minutes. • 6. Formulating 2.5×TK-substrate-biotin and ATP mixture with 1× enzyme reaction buffer and adding 2 μl of K-substrate-biotin/ATP mixture to the reaction plate. • 7. Sealing the plate with a sealing membrane and centrifuging the plate at 1000 g for 30 seconds and allowing it to react at room temperature for 50 minutes. • 8. Formulating 4×Sa-XL 665 (250 nM) with HTRF assay buffer. • 9. Adding 5 μl Sa-XL 665 and 5 μl TK-Antibody-Cryptate to each well, centrifuging it at 1000 g for 30 seconds, and allowing it to react for 1 hour at room temperature. • 10. Reading fluorescence signals at 615 nm (Cryptate) and 665 nm (XL665) with Biotek. 3. Data Analysis
# as §3, §4
# The IC50 (half inhibition concentration) of a compound was obtained using the following non-linear fitting equation, wherein data analysis was performed using Graphpad 6.0 software. Y=Bottom+(Top−Bottom)/(1+10^((Log IC50−X)*Hill Slope)) • X: log value of compound concentration; and Y: inhibition rate (% inh) 3.4 Validation of Results
# as §6, §7
# T3 sequence (P22607 23-806 V555M): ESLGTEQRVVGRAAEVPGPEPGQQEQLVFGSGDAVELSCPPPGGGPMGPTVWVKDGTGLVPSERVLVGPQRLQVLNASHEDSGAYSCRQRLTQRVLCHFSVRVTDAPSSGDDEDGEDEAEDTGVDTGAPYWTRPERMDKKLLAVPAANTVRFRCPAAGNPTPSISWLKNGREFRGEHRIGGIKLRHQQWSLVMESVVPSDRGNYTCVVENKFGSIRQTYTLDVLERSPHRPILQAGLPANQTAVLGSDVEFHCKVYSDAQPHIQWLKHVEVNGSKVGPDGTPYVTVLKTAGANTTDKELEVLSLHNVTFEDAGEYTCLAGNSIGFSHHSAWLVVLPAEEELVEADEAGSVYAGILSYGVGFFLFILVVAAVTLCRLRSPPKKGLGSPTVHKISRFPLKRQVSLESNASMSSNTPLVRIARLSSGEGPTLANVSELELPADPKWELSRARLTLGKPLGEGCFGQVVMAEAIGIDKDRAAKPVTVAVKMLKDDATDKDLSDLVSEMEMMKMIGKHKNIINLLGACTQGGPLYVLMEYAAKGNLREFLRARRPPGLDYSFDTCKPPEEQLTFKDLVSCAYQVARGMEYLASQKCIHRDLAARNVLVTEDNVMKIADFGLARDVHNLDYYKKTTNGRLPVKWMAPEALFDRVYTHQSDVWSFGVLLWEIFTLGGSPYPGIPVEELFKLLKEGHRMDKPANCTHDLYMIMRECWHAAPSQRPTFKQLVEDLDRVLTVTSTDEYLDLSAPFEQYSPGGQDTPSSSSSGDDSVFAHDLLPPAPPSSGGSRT
# T2 sequence (P21802 22-821 V564F): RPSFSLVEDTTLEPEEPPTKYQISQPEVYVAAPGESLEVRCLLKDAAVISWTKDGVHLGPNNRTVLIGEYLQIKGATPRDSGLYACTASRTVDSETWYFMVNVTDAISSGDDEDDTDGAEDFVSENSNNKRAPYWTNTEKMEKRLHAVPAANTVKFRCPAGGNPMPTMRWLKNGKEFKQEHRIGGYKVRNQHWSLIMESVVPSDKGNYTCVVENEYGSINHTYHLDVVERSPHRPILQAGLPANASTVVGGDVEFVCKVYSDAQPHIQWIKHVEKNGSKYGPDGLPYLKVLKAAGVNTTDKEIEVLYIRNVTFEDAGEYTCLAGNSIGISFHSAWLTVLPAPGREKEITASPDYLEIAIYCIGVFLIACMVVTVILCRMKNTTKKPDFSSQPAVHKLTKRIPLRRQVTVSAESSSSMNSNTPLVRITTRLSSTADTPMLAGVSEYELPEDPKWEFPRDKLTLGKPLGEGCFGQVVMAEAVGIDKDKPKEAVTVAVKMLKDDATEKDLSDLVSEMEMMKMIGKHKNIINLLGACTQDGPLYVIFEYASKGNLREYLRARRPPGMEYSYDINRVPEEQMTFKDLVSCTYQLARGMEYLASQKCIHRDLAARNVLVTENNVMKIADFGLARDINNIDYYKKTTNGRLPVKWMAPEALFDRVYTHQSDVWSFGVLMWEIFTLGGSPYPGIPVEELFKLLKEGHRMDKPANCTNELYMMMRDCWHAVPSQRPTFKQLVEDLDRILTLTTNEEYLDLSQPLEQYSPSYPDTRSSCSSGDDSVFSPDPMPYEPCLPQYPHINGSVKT
# T1 sequence (P11362 22-822 V561M): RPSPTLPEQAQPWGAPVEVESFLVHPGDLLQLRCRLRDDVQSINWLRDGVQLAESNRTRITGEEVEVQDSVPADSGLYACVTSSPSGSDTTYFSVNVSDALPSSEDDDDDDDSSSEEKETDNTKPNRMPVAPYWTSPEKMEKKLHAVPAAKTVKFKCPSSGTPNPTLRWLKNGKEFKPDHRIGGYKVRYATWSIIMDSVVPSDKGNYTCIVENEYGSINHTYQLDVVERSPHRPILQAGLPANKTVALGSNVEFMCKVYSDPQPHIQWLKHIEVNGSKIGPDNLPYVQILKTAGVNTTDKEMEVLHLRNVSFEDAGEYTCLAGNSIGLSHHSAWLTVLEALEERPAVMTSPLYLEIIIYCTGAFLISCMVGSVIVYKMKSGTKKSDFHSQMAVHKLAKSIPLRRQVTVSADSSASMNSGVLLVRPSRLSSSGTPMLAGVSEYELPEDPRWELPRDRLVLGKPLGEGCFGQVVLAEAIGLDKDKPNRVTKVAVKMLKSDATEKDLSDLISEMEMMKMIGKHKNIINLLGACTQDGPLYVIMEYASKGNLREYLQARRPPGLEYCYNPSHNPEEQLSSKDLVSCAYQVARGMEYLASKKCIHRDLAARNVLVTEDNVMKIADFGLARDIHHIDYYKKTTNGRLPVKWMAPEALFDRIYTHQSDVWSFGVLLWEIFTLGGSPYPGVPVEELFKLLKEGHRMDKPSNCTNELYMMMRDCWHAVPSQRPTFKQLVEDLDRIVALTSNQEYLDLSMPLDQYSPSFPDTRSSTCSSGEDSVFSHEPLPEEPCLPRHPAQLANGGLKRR
# T4 sequence (P35968 20-1356): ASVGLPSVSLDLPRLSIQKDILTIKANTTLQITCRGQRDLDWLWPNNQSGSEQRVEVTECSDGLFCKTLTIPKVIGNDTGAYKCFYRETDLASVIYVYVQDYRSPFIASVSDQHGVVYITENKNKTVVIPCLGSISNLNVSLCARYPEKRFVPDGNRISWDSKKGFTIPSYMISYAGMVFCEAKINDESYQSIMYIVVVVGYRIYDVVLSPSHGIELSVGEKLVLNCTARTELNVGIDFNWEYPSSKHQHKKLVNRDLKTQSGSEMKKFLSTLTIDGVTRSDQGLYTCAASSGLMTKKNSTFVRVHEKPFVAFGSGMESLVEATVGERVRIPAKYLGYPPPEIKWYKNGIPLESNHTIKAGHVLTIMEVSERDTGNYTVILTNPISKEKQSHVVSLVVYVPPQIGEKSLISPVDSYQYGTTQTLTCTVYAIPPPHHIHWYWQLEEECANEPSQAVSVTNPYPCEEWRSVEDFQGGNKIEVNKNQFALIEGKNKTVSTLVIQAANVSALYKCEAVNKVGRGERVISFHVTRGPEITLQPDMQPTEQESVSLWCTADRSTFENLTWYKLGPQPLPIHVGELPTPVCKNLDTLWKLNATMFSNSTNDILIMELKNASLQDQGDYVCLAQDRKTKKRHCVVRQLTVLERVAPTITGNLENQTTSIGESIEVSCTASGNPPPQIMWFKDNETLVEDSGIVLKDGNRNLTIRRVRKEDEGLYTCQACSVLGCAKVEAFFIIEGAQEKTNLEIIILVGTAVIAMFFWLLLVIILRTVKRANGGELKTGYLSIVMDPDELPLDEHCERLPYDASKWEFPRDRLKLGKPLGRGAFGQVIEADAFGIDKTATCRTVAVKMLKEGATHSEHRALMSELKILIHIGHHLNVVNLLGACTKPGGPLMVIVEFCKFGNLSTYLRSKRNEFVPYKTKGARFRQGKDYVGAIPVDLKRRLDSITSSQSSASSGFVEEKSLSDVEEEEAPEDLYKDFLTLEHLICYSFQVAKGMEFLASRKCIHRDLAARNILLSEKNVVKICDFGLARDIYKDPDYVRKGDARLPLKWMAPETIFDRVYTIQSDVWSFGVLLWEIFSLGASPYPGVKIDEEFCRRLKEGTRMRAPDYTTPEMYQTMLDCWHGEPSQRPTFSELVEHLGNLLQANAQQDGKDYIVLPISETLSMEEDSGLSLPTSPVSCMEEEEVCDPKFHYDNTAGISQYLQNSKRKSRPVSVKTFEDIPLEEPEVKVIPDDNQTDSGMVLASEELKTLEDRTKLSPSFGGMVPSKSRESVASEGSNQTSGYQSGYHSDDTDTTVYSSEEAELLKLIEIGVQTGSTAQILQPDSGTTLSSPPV
Structure (SMILES),IC50 (FGFR1 V561M) [nM],IC50 (FGFR2 V564F) [nM],IC50 (FGFR3 V555M) [nM],IC50 (VEGFR2) [nM]
"C[C@@H](Oc1ccc2[nH]nc(C(=O)Nc3cnn(C4CCOCC4)c3)c2c1)c1c(Cl)cncc1Cl [Compound 47, (R)-5-(1-(3,5-dichloropyridin-4-yl)ethoxy)-N-(1-(tetrahydro-2H-pyran-4-yl)-1H-pyrazol-4-yl)-1H-indazole-3-carboxamide]",2.3,1.2,2.1,194
"C[C@@H](Oc1ccc2[nH]nc(C(=O)Nc3cnn(CCN(C)C)c3)c2c1)c1c(Cl)cncc1Cl [Compound 36, (R)-5-(1-(3,5-dichloropyridin-4-yl)ethoxy)-N-(1-(2-(dimethylamino)ethyl)-1H-pyrazol-4-yl)-1H-indazole-3-carboxamide]",0.88,0.07,0.11,41
"CC(Oc1ccc2[nH]nc(C(=O)Nc3cnn(C(C)C)c3)c2c1)c1c(Cl)cncc1Cl (stereo not shown) [Compound 26, 5-(1-(3,5-dichloropyridin-4-yl)ethoxy)-N-(1-isopropyl-1H-pyrazol-4-yl)-1H-indazole-3-carboxainide]",11.4,1.8,2.9,255
"C[C@@H](Oc1ccc2[nH]nc(C(=O)Nc3cnn(C4CCC(O)CC4)c3)c2c1)c1c(Cl)cncc1Cl (stereo partly drawn) [Compound 48, (R)-5-(1-(3,5-dichloropyridin-4-yl)ethoxy)-N-(1-(4-hydroxycyclohexyl)-1H-pyrazol-4-yl)-1H-indazole-3-carboxamide]",1,0.31,0.82,115
"CCN1CCC(Cn2cc(NC(=O)c3n[nH]c4ccc(O[C@H](C)c5c(Cl)cncc5Cl)cc34)cn2)CC1 [Compound 40, (R)-5-(1-(3,5-dichloropyridin-4-yl)ethoxy)-N-(1-((1-ethylpiperidin-4-yl)methyl)-1H-pyrazol-4-yl)-1H-indazole-3-carboxamide]",0.42,1.3,0.02,33
"CCn1cc(NC(=O)c2n[nH]c3ccc(O[C@H](C)c4c(Cl)cncc4Cl)cc23)cn1 [Compound 34, (R)-5-(1-(3,5-dichloropyridin-4-yl)ethoxy)-N-(1-ethyl-1H-pyrazol-4-yl)-1H-indazole-3-carboxamide]",0.24,0.06,0.75,61
"CC(Oc1ccc2[nH]nc(C(=O)Nc3cnn(C4CCC4)c3)c2c1)c1c(Cl)cncc1Cl (stereo not shown) [Compound 27, N-(1-cyclobutyl-1H-pyrazol-4-yl)-5-(1-(3,5-dichloropyridin-4-yl)ethoxy)-1H-indazole-3-carboxamide]",20,2.1,7.3,581
"CCN1CC(Cn2cc(NC(=O)c3n[nH]c4ccc(O[C@H](C)c5c(Cl)cncc5Cl)cc34)cn2)C1 [Compound 39, (R)-5-(1-(3,5-dichloropyridin-4-yl)ethoxy)-N-(1-((1-ethyl-azetidin-3-yl)methyl)-1H-pyrazol-4-yl)-1H-indazole-3-carboxamide]",0.35,0.05,0.05,30
"C[C@@H](Oc1ccc2[nH]nc(C(=O)Nc3cnn(Cc4cccnc4)c3)c2c1)c1c(Cl)cncc1Cl [Compound 49, (R)-5-(1-(3,5-dichloropyridin-4-yl)ethoxy)-N-(1-(pyridin-3-ylmethyl)-1H-pyrazol-4-yl)-1H-indazole-3-carboxamide]",0.51,0.55,1.4,110
"C[C@@H](Oc1ccc2[nH]nc(C(=O)Nc3cnn(CCN4CCOCC4)c3)c2c1)c1c(Cl)cncc1Cl [Compound 37, (R)-5-(1-(3,5-dichloropyridin-4-yl)ethoxy)-N-(1-(2-morpholinoethyl)-1H-pyrazol-4-yl)-1H-indazole-3-carboxamide]",1.6,0.44,0.16,79
